Reference: the NIST ThermoML archive (doi:10.1016/j.tca.2016.03.002)
Numbers after ± are expanded uncertainties.

Columns and labels:
[1] = 100 kPa, Liquid; for viscosity: Capillary tube (Ostwald / Ubbelohde) method; for mass density: Vibrating tube method
[2] = refractive index (Na D-line) (dimensionless); details: 100 kPa, Liquid, Standard Abbe refractometry
[3] = relative permittivity at various frequencies (dimensionless); details: 100 kPa, Liquid, Frequency=30 MHz, Parallel plate capacitor
[4] = refractive index (Na D-line) (dimensionless); xn = mol fraction of the nth substance listed; details: 100 kPa, Liquid, Standard Abbe refractometry, x1 = 1
[5] = relative permittivity at various frequencies (dimensionless); xn = mol fraction of the nth substance listed; details: 100 kPa, Liquid, Frequency=30 MHz, Parallel plate capacitor, x1 = 1
[6] = xn = mol fraction of the nth substance listed; details: 100 kPa, Liquid, x1 = 1; for viscosity: Capillary tube (Ostwald / Ubbelohde) method; for mass density: Vibrating tube method

| SMILES | viscosity ([1]; 293.15 K) | mass density ([1]; 293.15 K) | viscosity ([1]; 298.15 K) | mass density ([1]; 298.15 K) | viscosity ([1]; 303.15 K) | mass density ([1]; 303.15 K) | refractive index ([2]; 293.15 K) | refractive index ([2]; 298.15 K) | refractive index ([2]; 303.15 K) | relative permittivity ([3]; 293.15 K) | relative permittivity ([3]; 298.15 K) | relative permittivity ([3]; 303.15 K) | other results |
| --- | --- | --- | --- | --- | --- | --- | --- | --- | --- | --- | --- | --- | --- |
| NC1CCCCC1 [cyclohexylamine] | 2.142 ± 0.046 mPa·s | 866.86 ± 2.1 kg/m3 | 1.908 ± 0.041 mPa·s | 862.315 ± 2.1 kg/m3 | 1.697 ± 0.036 mPa·s | 857.774 ± 2.1 kg/m3 | 1.45934 ± 0.0044 | 1.45663 ± 0.0044 | 1.45325 ± 0.0044 | 4.65 ± 0.09 | 4.56 ± 0.09 | 4.47 ± 0.09 |  |
| CO [methanol] | 0.585 ± 0.012 mPa·s | 791.414 ± 1.9 kg/m3 | 0.545 ± 0.011 mPa·s | 786.716 ± 1.9 kg/m3 | 0.508 ± 0.011 mPa·s | 782.032 ± 1.9 kg/m3 | 1.32866 ± 0.004 | 1.32682 ± 0.004 | 1.32444 ± 0.004 | 33.6 ± 0.67 | 32.62 ± 0.65 | 31.67 ± 0.63 |  |
| CO [methanol] + NC1CCCCC1 |  |  |  |  |  |  |  |  |  |  |  |  | refractive index ([4]; 293.15 K): 1.32866 ± 0.004; refractive index ([4]; 298.15 K): 1.32682 ± 0.004; refractive index ([4]; 303.15 K): 1.32444 ± 0.004; relative permittivity ([5]; 293.15 K): 33.6 ± 0.67; relative permittivity ([5]; 298.15 K): 32.62 ± 0.65; relative permittivity ([5]; 303.15 K): 31.67 ± 0.63; viscosity ([6]; 293.15 K): 0.585 ± 0.012 mPa·s; mass density ([6]; 293.15 K): 791.414 ± 1.9 kg/m3; viscosity ([6]; 298.15 K): 0.545 ± 0.011 mPa·s; mass density ([6]; 298.15 K): 786.716 ± 1.9 kg/m3; viscosity ([6]; 303.15 K): 0.508 ± 0.011 mPa·s; mass density ([6]; 303.15 K): 782.032 ± 1.9 kg/m3 |
